Laboratory results: patent US20240376427A1, “COMPOSITIONS AND SYSTEMS COMPRISING THREE-DIMENSIONAL NERVE CELL CULTURES AND METHODS OF USING THE SAME” (THE ADMINISTRATORS OF THE TULANE EDUCATIONAL FUND, priority 2021, published 2024)

Experiments:
[1] = system: DRG spheroid monocultures; type: cell-based, rat
[2] = system: hPSC-derived nociceptor-SCDH cocultures; type: cell-based, human
[3] = system: hPSC-derived nociceptor-dorsal spinal cord cocultures; assay: Evoked response field potential recording in hPSC-derived nociceptor-dorsal spinal cord cocultures; type: cell-based, human
Protocol: Generation o±3D Spheroid Cultures. Cryogenically preserved human stem-cell derived spinal cord dorsal horn (SCDH) precursor cells were a kind gift from the Randolph Ashton. Cells were rapidly thawed and diluted 1:4 in Neurobasal Medium (Thermo-Fisher Scientific, Waltham, MA). Cells were centrifuged at 300 g for 4 minutes and the supernatant was removed. Cells were then resuspended in neuronal differentiation media comprised of Neurobasal Medium supplemented with 2% v/v B27 supplement (Thermo-Fisher), 1% v/v N2 supplement (Thermo-Fisher), 1% v/v GlutaMAX (Thermo-Fisher), 20 ng/mL human nerve growth factor, 10 ng/mL recombinant human/murine/rat brain derived neurotrophic factor, 10 ng/mL recombinant human glial cell derived neurotrophic factor, 10 ng/mL recombinant human NT-3 (all growth factors from PeproTech, Cranbury, NJ, USA), 1 uM dibutyrl-cAMP (Millipore-Sigma, St. Louis, MO, USA), 10 uM Y-27632 (Abcam, Waltham, MA, USA), 10 uM DAPT (Tocris, Minneapolis, MN, USA), and 1% v/v antibiotic/antimycotic solution (Thermo-Fisher). Cells were plated at 500,000 cells/cm^2 on culture well plates coated with Matrigel (Corning) diluted at 1:100 for six days in neuronal differentiation media changed every-other-day to force terminal neuron differentiation. Cryogenically preserved human stem cell-derived nociceptors were purchased from Anatomic, Inc (Minneapolis, MN, USA). Cells were rapidly thawed, diluted 1:4 in Neurobasal Medium, centrifuged at 300 g for 4 minutes, and the supernatant was removed. Nociceptors were then resuspended in human culture growth media (identical to neuronal differentiation media but lacking DAPT and Y-27632) plated at 80,000 cells/cm^2 in well plates coated with Matrigel diluted at 1:100, allowed to adhere overnight, and washed to remove any dead cell debris. Nociceptor and terminally differentiated SCDH cell cultures were lifted by incubation in Accutase at 37° C. for 15 minutes. The cell suspensions were collected, centrifuged at 300 g for 4 minutes, the supernatant was removed, and both cell types were resuspended in culture growth media. […]

[4] = system: DRG(CHR2-GFP)-SCDH(CaMPARI-2) cocultures; assay: Optogenetic DRG photostimulation-induced calcium influx in SCDH recorded by CaMPARI-2; type: cell-based, rat
Protocol: (§1) AAV1-hSyn-NES-his-CaMPARI2-WPRE-SV40 was a gift from Eric Schreiter (Addgene viral prep #101060-AAV1; http://n2t.net/addgene:101060; […]; http://n2t.net/addgene:58880; RRID:Addgene_5880). Viral particles of both types were added during spheroid formation with a MOI of 200,000. Cultures were seeded and matured for three weeks. Baseline red fluorescence was imaged with both three and ten second exposures prior to photostimulation using a Nikon AZ100 fluorescent microscope (2× magnification plus 5× or 8× digital zoom). […] Post-photostimulation red fluorescence was again imaged with methods identical to baseline imaging. The integrated pixel intensity for a region of interest encompassing each spheroid of interest was quantified in Fiji (ImageJ) and post-photostimulation intensity was normalized to pre stimulation intensity to obtain a final value for fold change in integrated pixel intensity.
(§2) The optogenetic experiments were conducted with between-samples designs. The fold change in red fluorescence before and after photostimulation was compared between control cultures and groups of cultures that received different independent treatments. […]

[5] = system: DRG monocultures; assay: CaMPARI-2 recorded calcium influx in DRG monocultures (capsaicin); type: cell-based, rat; details: 10 μM capsaicin for five minutes prior to photostimulation, vs vehicle (0.1% DMSO)
Protocol: as §1, §2

O=C(O)CN(CCN(CC(=O)O)CC(=O)O)CC(=O)O [EDTA, ethylenediaminetetraacetic acid]
electrically-evoked compound action potentials (CAPs) [1]: insensitive

CN1CC[C@]23c4c5ccc(O)c4O[C@H]2[C@@H](O)C=C[C@H]3[C@H]1C5.O=S(=O)(O)O [morphine, Morphine sulfate]
fully spontaneous burst firing in SCDH spheroid [2]: increases in frequency and amplitude
semi-spontaneous burst firing in SCDH spheroid [2]: increased in frequency
late, positive-going portion of the synaptically evoked waveform [3]: prolongs

N#Cc1cc2c(cc1[N+](=O)[O-])=NC(=O)C(=O)N=2.O.[Na].[Na] [CNQX, 6-Cyano-7-nitroquinoxaline-2,3-dione disodium salt hydrate]
electrically-evoked compound action potentials (CAPs) [1]: insensitive
amplitude of the later negative and positive-going portions of the synaptic waveform [3]: reduced
synaptically evoked activity in dorsal spinal cord tissue following stimulation of afferent nociceptor spheroid [3]: blocks a large portion
calcium influx in SCDH following optical excitation of DRG tissue [4]: significantly reduced calcium influx

COc1cc(CNC(=O)CCCC/C=C/C(C)C)ccc1O [capsaicin]
calcium influx recorded by CaMPARI-2 (fold change in red fluorescence) [5]: induced significant calcium influx

NC1=N[C@H](O)[C@H]2[C@H]3O[C@]4(O)O[C@@H]([C@@H](O)[C@@]2(N1)[C@@H]4O)[C@]3(O)CO [tetrodotoxin]
electrically-evoked compound action potentials (CAPs) [1]: completely blocked
